# Results as given in US8128963B2, “Methods for treating ischemic disorders using carbon monoxide” (The Trustees of Columbia University in the City Of New York, priority 1999, dated 2012).
# Legend:
# [1] = system: murine model of focal cerebral ischemia; assay: Murine focal cerebral ischemia, carbon monoxide inhalation and heme oxygenase blockade; format: in vivo, mouse; details: for infarct volume / mortality: vs controls
# Procedure: FIGS. 23A and 23B. FIG. 23A. The effect of carbon monoxide inhalation on cerebral infarct volumes. Mice were placed in bell jars, in which they were exposed to 0.1% CO for 12 hours. After this treatment, they were removed from the bell jars and subjected to intraluminal occlusion of the middle cerebral artery. At 24 hours, animals were sacrificed and infarct volumes measured by triphenyltetrazolium chloride (TTC) staining as shown in FIG. 25. Quantification of infarction volumes (mean±SEM) is expressed as the percent of infarction of the ipsilateral hemisphere.
# Protoporphyrin preparation and administration. Tin protoporphyrin IX dichloride (20 mg, Porphyrin Products, Logan, Utah), zinc protoporphyrin IX (17 mg, Porphyrin Products, Logan, Utah), or biliverdin (18 mg, Porphyrin Products, Logan, Utah) was initially dissolved in dimethyl sulfoxide (2 mL). An aliquot of this solution (200 μL) was added to normal saline (9.8 mL) and this mixture was vortexed vigorously to yield a 2.7×10^−4 M solution of the protoporphyrin. The solution container was wrapped in aluminum foil to prevent photolysis of the protoporphyrin and stored at 4° C. until used.
# Micro-osmotic pumps (#1003D, Alza Corp., Palo Alto, Calif.) were loaded with this protoporphyrin solution (91 μL/pump) and implanted subcutaneously in the anesthetized mouse via a 1 cm dorsal midline incision 24 h prior to the start of surgery. These pumps administer drug solution at a rate of 0.95±0.02. μL/h. At the time of surgery an additional dose of the protoporphyrin solution was administered (0.3 mL, i.v.) prior to insertion of the intralumenal occluding catheter. Each animal received the following total (injection+pump) drug amounts over the course of the study tin protoporphyrin (0.070 mg), zinc protoporphyrin (0.059 mg), or biliverdin (0.061 mg).
# Human umbilical vein ECs = assay: vWF release from hypoxic endothelial cells (ELISA); format: cell-based
# Procedure: Endothelial cell culture and exposure of cells to H or H/R. Human umbilical vein ECs were prepared from umbilical cords and grown in culture by the method of Jaffe (16) as modified by Thornton (17). Experiments utilized confluent ECs (passages 1-4) grown in Medium 199 supplemented with fetal bovine serum (15%; Gemini, Calabasas, Calif.), human serum (5%; Gemini), endothelial growth supplement (Sigma, St. Louis, Mo.), heparin (90 μg/ml; Sigma) and antibiotics, as described (17). When ECs achieved confluence, experiments were performed by placing cultures in an environmental chamber (Coy Laboratory Products, Ann Arbor, Mich.) which provided a controlled temperature (37° C.) and atmosphere with the indicated amount of oxygen, carbon dioxide (5%) and the balance made up of nitrogen. Use of this chamber for cell culture experiments has been described previously (15,18). During exposure of ECs to hypoxia (for a maximum of 16 hours), the oxygen tension in the culture medium was 14-18 torr and there was no change in the medium pH. Reoxygenation was performed by placing ECs in an ambient atmosphere containing carbon dioxide (5%) at 37° C.
# Measurement of Weibel-Palade body exocytosis: ECs were plated into 24 well plates, rinsed 3 times with Hank's balanced salt solution, and then exposed to hypoxia or to normoxia for the indicated durations. For experiments in which vWF was measured, cells were maintained in serum-free medium. All other EC experiments were performed in the EC growth medium described above. For measurement of vWF, 200 μL aliquots of culture supernatant was removed at the indicated times, and a commercially available ELISA (American Diagnostica, Greenwich, Conn.), based on a polyclonal goat anti-human vWF antibody, was performed on duplicate specimens, with a standard curve generated using purified human vWF antigen supplied by the same vendor. EC P-selectin expression was determined by measuring the specific binding of a murine monoclonal anti-human P-selectin antibody (WAPS 12.2 clone, Endogen, Cambridge, Mass.; this is an IgGl which recognizes a calcium sensitive epitope and blocks P-selectin dependent neutrophil adhesion. Antibody was radiolabelled with ^125I by the lactoperoxidase method (19) using Enzymobeads (Bio-Rad, Hercules, Calif.), stored at 4° C. and used within one week of labelling. Binding assays were performed on HUVECs plated on 96 well plates, in which fresh M199 with 0.1% bovine serum albumin (Sigma, St. Louis, Mo.) was added immediately prior to each experiment. Cells were placed in a humidified environment at 37° C., and exposed to normoxia or H (in the presence or absence of 50 μM probucol, as indicated, Sigma) for the indicated durations. Cell monolayers were fixed for 15 min. with 1% paraformaldehyde^10 (cells exposed to H were fixed while still within the hypoxic environment), visually inspected to ensure that the monolayers remained intact, and washed twice with HBSS containing 0.5% bovine serum albumin (HBSS/A). Monolayers were then exposed to 10^5 cpm of ^125I-labelled anti-P-selectin antibody (WAPS 12.2) in the presence of 200 μg/mL of either unlabelled blocking antibody (WAPS 12.2) or nonblocking anti-P-selectin IgG of the same isotype (anti-GMP-140, AC1.2 clone, Becton-Dickinson, San Jose, Calif.) (20,21). After binding for 1 hour at 37° C., monolayers were washed 4 times with HBSS/A, and bound antibody was eluted with 1% triton X-100 in PBS (200 μL/well) and counted. […]
# [2] = system: hypoxic human umbillical vein ECs; assay: vWF release from hypoxic HUVECs, NO/cGMP pathway; format: cell-based; details: hypoxia pO2<20 Torr 4 hours; SIN-1 0.1 mM, 8-Bromo-cGMP 10 nM
# Procedure: (§1) Hypoxia or free radicals induce P-selectin (PS) translocation to the endothelial cell (EC) surface, where it participates in neutrophil (PMN) adhesion during reperfusion. To explore a mechanism whereby nitrovasodilators may attenuate postischemic leukosequestration, we tested whether stimulating the NO/cGMP pathway could attenuate surface PS expression in hypoxic human umbillical vein ECs. […] Under similar conditions, addition of the NO donor 3-morpholino sydnonimine (SIN-1, 0.1 mM) or the cGMP analog 8-Bromo-cGMP (cGMP, 10 nM) caused a reduction in vWF release; Control vWF, 11±0.4 mU/mL; SIN-1, 9.1±0.3 mU/mL; cGMP, 9.7±0.2 mU/mL; p<0.005 for both SIN-1 or cGMP vs Control.
# P-selectin = assay: Surface P-selectin expression on hypoxic HUVECs (radiolabeled anti-PS antibody binding); format: cell-based, human
# Procedure: as §1
# hypoxic HUVECs = assay: Immunofluorescent adherence assay, HL60 binding to hypoxic HUVECs; format: cell-based, human
# Procedure: as §1
# [3] = system: lung ischemia (lung preservation for transplantation); assay: Rat orthotopic left lung transplantation after 6 h preservation, donor CO pretreatment; format: in vivo
# Procedure: Inbred male Lewis rats (250-300 gms) were used for all experiments according to a protocol approved by the Institutional Animal Care and Use Committee at Columbia University, in accordance with guidelines set forth by the American Academy for Accreditation of Laboratory Animal Care (AAALAC). Lung transplant experiments were performed in the following manner. Donor rats were given 500 units of heparin intravenously, and the pulmonary artery (PA) was flushed with a 30 mL volume of 4° C. preservation solution at a constant pressure of 20 mm Hg. When lungs are preserved in this manner, most of the infused flush solution comes out of a left atrial vent created in the lung donor, as well as out of the pulmonary veins following transection.
# The left lung was then harvested, a cuff was placed on each vascular stump, a cylinder was inserted into the bronchus, and the lung was submerged for 6 hours in 4° C. preservation solution which was identical to the PA flush solution. Gender/strain/size matched rats were anesthetized, intubated, and ventilated with 100% O2 using a rodent ventilator (Harvard Apparatus, South Natick, Mass.). Orthotopic left lung transplantation was performed through a left thoracotomy using a rapid cuff technique for all anastomoses, with warm ischemic times maintained below 5 minutes. The hilar cross-clamp was released, re-establishing blood flow and ventilation to the transplanted lung. A snare was then passed around the right PA, and Millar catheters (2F; Millar Instruments, Houston, Tex.) were introduced into the main PA and the left atrium (LA). A Doppler flow probe (Transonics, Ithaca, N.Y.) was placed around the main PA.
# Online hemodynamic monitoring was accomplished using MacLab and a Macintosh IIci computer. Measured hemodynamic parameters included LA and PA pressures (mm Hg), and PA flow (mL/min). Arterial oxygen tension (pO2, mm Hg) was measured during inspiration of 100% O2 using a model ABL-2 gas analyzer (Radiometer, Copenhagen, Denmark). PVRs were calculated as (mean PA pressure—LA pressure)/mean PA flow and expressed as mm Hg/mL/min. After baseline measurements, the native right PA was ligated and serial measurements taken every five minutes until the time of euthanasia at 30 minutes (or until recipient death).
# At the indicated time before surgery (4,8, or 12 hours), rats were placed in a bell jar, and carbon monoxide was administered at various concentrations (0.01%, 0.03%, or 0.1%), with the remainder of the gas mixture consisting of room air. (The gas was passed through a jar of water prior to administration, in order to humidify it for animal comfort). At the indicated times following initiation of exposure, rats were anesthetized and lungs harvested as described above. These donor lungs were used in subsequent lung transplant experiments.
# acute ischemic stroke = details: cited from earlier work
# [4] = CO-pretreated donor lungs vs untreated controls
molecule,measurement,setting,value
"C=CC1=C(C)/C(=C/C2=NC(=C\c3[nH]c(/C=C4\NC(=O)C(C)=C4C=C)c(C)c3CCC(=O)O)/C(CCC(=O)O)=C2C)NC1=O [Biliverdin, biliverdin]",effect on stroke outcome (cerebral protection),"[1]; osmotic pump plus i.v. dose, total 0.061 mg",without effect
"O=C(O)CN(CCOCCOCCN(CC(=O)O)CC(=O)O)CC(=O)O [EGTA, ethyleneglycol bis (aminoethylether) tetraacetic acid]",H-induced EC release of vWF,"Human umbilical vein ECs; 0 mM Ca++ with 2 mM EGTA, 8 hrs",even more suppressive effect
"N=c1c[n+](N2CCOCC2)[n-]o1 [SIN-1, 3-morpholino sydnonimine]",vWF release,[2],9.1±0.3 mU/mL
same,PS expression in calcium-free medium,P-selectin; ECs in calcium-free medium,Neither SIN-1 nor cGMP could further reduce PS expression
same,decrease of surface PS expression vs controls,"P-selectin; hypoxia 4 hours, SIN-1 0.1 mM, 8-Bromo-cGMP 10 nM",40%
same,decrease of HL60 binding to hypoxic HUVECs vs controls,hypoxic HUVECs,53%
[C-]#[O+] [carbon monoxide],mortality at 24 hours,[1]; 0.1% CO inhaled for 12 hours before MCA occlusion,reduces mortality
same,cerebral infarct volume,"[1]; 0.1% CO inhaled for 12 hours before MCA occlusion, 24 hours",reduces infarct volumes
same,inhaled CO dose providing optimal protection (infarct volume),[1]; dose-response of inhaled CO,0.1%
same,level of protection,[3]; 0.01% dose,least protection
same,level of protection,[3]; 0.03% dose,intermediate level of protection
same,level of protection,[3]; 0.1% dose,best protection
same,survival of recipients,[3]; CO-pretreated donor lungs vs controls,Improved survival
same,arterial oxygenation of recipients,[3]; [4],Improved arterial oxygenation
same,pulmonary arterial blood flow,[3]; [4],Increased pulmonary arterial blood flow
same,pulmonary vascular resistance,[3]; [4],reduced pulmonary vascular resistance
same,time dependence of protection,"[3]; exposure 4, 8 or 12 hours before surgery",longer exposures appeared to provide the greatest protection
CC(C)(Sc1cc(C(C)(C)C)c(O)c(C(C)(C)C)c1)Sc1cc(C(C)(C)C)c(O)c(C(C)(C)C)c1 [probucol],vWF levels following reoxygenation of hypoxic ECs,Human umbilical vein ECs; probucol 50 μM,blunt the further increase in vWF levels
same,effect on H-mediated exocytosis of Weibel-Palade bodies (vWF release),Human umbilical vein ECs; probucol 50 μM added at onset of H,no effect
same,vWF in culture supernatant,"Human umbilical vein ECs; probucol 50 μM added at onset of H, 6 hours of H",4.7±0.31×10^−3 U/ml
"C=CC1=C(C)C2=Cc3c(C=C)c(C)c4[n]3[Sn]([Cl])([Cl])[n]3c(c(C)c(CCC(=O)O)c3=CC3=NC(=C4)C(C)=C3CCC(=O)O)=CC1=N2 [tin protoporphyrin, Tin protoporphyrin IX dichloride]",infarct volume,[1]; heme oxygenase blockade,significantly larger infarct volumes
same,mortality,[1]; heme oxygenase blockade,increased mortality
same,neurological outcome,"[1]; heme oxygenase blockade, vs untreated controls",worse neurological outcomes
same,local CO levels by direct measurement,[1]; osmotic pump from 24 h before surgery plus i.v. dose,reduced local CO levels
C=CC1=C(C)c2cc3[n-]c(cc4[n-]c(cc5nc(cc1n2)C(C)=C5C=C)c(C)c4CCC(=O)O)c(CCC(=O)O)c3C.[Zn+2] [zinc protoporphyrin IX],infarct volume,[1]; heme oxygenase blockade,increase
same,mortality,[1]; heme oxygenase blockade,increase
streptokinase,rate of hemorrhagic transformation,acute ischemic stroke; given in the first several (<6) hours following stroke onset,up to 67%
same,6 month mortality,acute ischemic stroke; outside the therapeutic window,73%
same,10 day mortality,acute ischemic stroke; outside the therapeutic window,34.0%
